Results as given in patent US9757370B2, “Opsin-binding ligands, compositions and methods of use” (priority 2011, dated 2017).

Test system: P23H opsin
Experiment: Rhodopsin purification and regeneration: pigment formation from P23H opsin after compound treatment of P23H cells
Details: for Fold Increase Over Control (480-500 nm absorbance): P23H cells treated 48 hours, regenerated with 9-cis-retinal (20 μM), fold increase over the DMSO control

SMILES | Fold Increase Over Control (480-500 nm absorbance) (10 μM) [fold] | Fold Increase Over Control (480-500 nm absorbance) (20 μM) [fold] | regeneration of 500 nm absorbing pigment upon treatment with retinal (FIG. 1) (P23H opsin treated with 20 μM during mutant protein production, relative to vehicle (DMSO) alone)
C[C@H]1CCCC(C)(C)[C@@H]1[C@H](O)c1ccc2c(c1)CCN(C(N)=O)C2 [Compound 3, 6-((S)-hydroxy((1R,6S)-2,2,6-trimethylcyclohexyl)methyl)-3,4-dihydroisoquinoline-2(1H)-carboxamide] | 1.5 |  | 
CC(=O)/C=C/C1=C(C)CCCC1(C)C [β-ionone, reference compound] |  | 2.4 | increase in regeneration of 500 nm absorbing pigment
C[C@H]1CCCC(C)(C)[C@@H]1[C@@H](O)c1ccc2c(c1)CCN(C(N)=O)C2 [Compound 5, 6-((R)-hydroxy((1R,6S)-2,2,6-trimethylcyclohexyl)methyl)-3,4-dihydroisoquinoline-2(1H)-carboxamide] | 1.9 |  | 
CC1=C(C(O)c2ccc3c(c2)CCN(C(N)=O)C3)C(C)(C)CCC1 (centres unmarked) [Compound 2, 6-(hydroxy(2,6,6-trimethylcyclohex-1-enyl)methyl)-3,4-dihydroisoquinoline-2(1H)-carboxamide] | 2.5 |  | 
